Data: patent US10626107B2, “Crystal form, salt type of substituted 2-hydro-pyrazole derivative and preparation method therefor” (CHIA TAI TIANQING PHARMACEUTICAL GROUP CO., LTD., priority 2016, dated 2020)

Columns and labels:
[1] = Study on the polymorphs of compound WX_1 (XRPD after treatment in solvents); type: physicochemical
From the text: The solution was centrifuged to obtain a precipitate, which was dried and then subjected to an XRPD detection.

[2] = test system: human lung cancer LU-01-0393 subcutaneous xenograft tumor; test: In vivo drug efficacy study (II): human lung cancer LU-01-0393 subcutaneous xenograft tumor model; set-up: species or system BALB/c nude mice; settings: 45 mg/kg PO QD × 3W
From the text: Cell line-derived xenograft (CDX) BALB/c nude mice that were female, 6- to 8-week old, weighed 17 to 20 g, and subcutaneously implanted with human tumor cell line derived from LU-01-0393 lung cancer patient were used. A total of 72 mice were needed and were purchased from Shanghai Xipuer-Bikai Experimental Animal Co., Ltd. Human lung cancer LU-01-0393 tumor (i.e., non-small cell lung cancer) was originally derived from a clinical sample of a surgical resection. It was defined as passage PO after being inoculated to nude mice, and the tumor of passage PO was re-inoculated to nude mice and was then defined as passage P1, and so forth. Passage was performed in nude mice. LU-01-0393-FP5 was obtained from the transplantation after the recovery of P4. This study would use the tumor tissue of passage FP6.
BALB/c nude mice that were female, 6- to 8-week old, and weighed approximately 17 to 20 g were used. The mice were maintained in separate ventilated cages in a special pathogen-free environment. All the cages, bedding and water were disinfected prior to use. All the animals were free to access a standard certified commercial laboratory diet. A total of 72 mice purchased from Shanghai Xipuer-Bikai Experimental Animal Co., Ltd. were used for the study. The LU-01-0393 FP6 tumor tissue was cut to 20 to 30 mm^3 and inoculated to the right back of each mouse to wait for the tumor growth. When the average tumor volume reached about 171 mm^3, the mice were randomized into groups and administered. The test compounds were orally administered daily, and the administration dosages were as shown in the above table. The tumor diameters were measured twice a week using a two-dimensional caliper. The tumor volumes were calculated by the following formula: V=0.5 a×b^2, wherein a and b were the long diameter and the short diameter of a tumor, respectively. The anti-tumor efficacy was determined by dividing the average increase of the tumor volumes of the animals treated with a compound by the average increase of the tumor volumes of the animals without being treated with the compound.

[3] = test system: MCF-7 breast cancer cells; test: Inhibition assay of the A crystal form of WX_1 on MCF-7 breast cancer cell proliferation (CellTiter-Glo); type: cell-based; settings: Homo sapiens, MCF7, 144 h; MCF-7 cells, 6 days
Experimental: RPMI 1640 medium, fetal bovine serum and penicillin/streptomycin as antibiotics were purchased from Promega (Madison, Wis.). The MCF-7 cell line was purchased from the European Collection of Authenticated Cell Cultures (ECACC). Envision MultiLabel Plate Reader (PerkinElmer).
MCF-7 cells were seeded in a black 384-well plate with 45 μL of cell suspension (containing 200 MCF-7 cells) per well. The cell plate was placed in a carbon dioxide incubator for overnight culture.
The test compounds were diluted 3 times to the 10th concentration with Bravo, i.e., diluted from 10 μM to 0.508 nM, and a duplicate-well experiment was set. The medium was added to the middle plate in an amount of 49 μL per well. The gradient-diluted compounds were transferred in an amount of 1 μL per well to the middle plate according to the corresponding positions, and the mixture was mixed evenly and transferred to the cell plate in an amount of 5 μL per well. The cell plate was incubated in a carbon dioxide incubator for 6 days.
Promega CellTiter-Glo reagent was added to the cell plate in an amount of […] per well, and incubated for 10 minutes at room temperature to stabilize the luminescence signal. Reading was performed using a PerkinElmer Envision Multilabel Plate Reader.

[4] = Solubility study at different pHs; type: physicochemical; settings: 37° C.; for solubility at 4 h / solubility at 24 h: thermodynamic from solid; for Solubility 4 hrs / Solubility (24 hrs): LOQ = 0.0003 mg/mL
Experimental: A magnet was added to the above suspension, which was placed on a magnetic stirrer for stirring (temperature 37° C., dark). After respectively stirring for 4 hours and 24 hours, samples were taken and centrifuged, and the residual solids in the lower layers were tested by XRPD. The samples in the upper layers were filtered with a filtration membrane. The concentrations of the filtrates were determined by HPLC and the pHs were measured. After the HPLC system was equilibrated with a mobile phase, the analysis of the samples started.

[5] = Solubility tests in different vehicles (HPLC); type: physicochemical; settings: 26 °C, thermodynamic from solid, room temperature 25 to 27° C.
Experimental: Samples (about 2 mg) (if the sample was a salt, the required amount of the salt was calculated according to the salt factor in accordance with the criterion that the compound of formula (I) was 2 mg) were weighed respectively and added to a 1.5 mL glass vial. Different vehicles (1 mL) were then added respectively. The above-mentioned suspension was placed on a magnetic stirrer for stirring (room temperature 25 to 27° C.). After stirring for 24 hours, samples were taken. The samples were first centrifuged, and the supernatants were taken. After appropriate dilution according to the situation of the dissolution, the concentrations were determined by HPLC. The results were as follows:
Notes: • FaSSIF: to simulate the intestinal fluid in the small intestine of human in a hunger state before meal; • FeSSIF: to simulate the intestinal fluid in the small intestine of human in a full state after meal; • SGF: to simulate the gastric juice in the empty stomach of human in a hunger state

[6] = aqueous buffer, pH 3.8 buffer (pH 3.80)
[7] = aqueous buffer, pH 4.5 buffer (pH 4.48)
[8] = aqueous buffer, pH 5.5 buffer (pH 5.52)
[9] = aqueous buffer, pH 6.0 buffer (pH 6.04)
[10] = simulated gastric fluid, 0.01N HCl (pH 1.99)
[11] = simulated gastric fluid, 0.1N HCl (pH 1.00)

For CC(C)c1c2cc(-c3nc(Nc4ccc(N5CCNCC5)cn4)ncc3F)ccc2nn1C.O=C(O)/C=C\C(=O)O [A crystal form of compound WX_1], the Crystal form ([1]; acetone, 40° C. in the dark for 2 days) was “A crystal form”, the Crystal form ([1]; acetone-water (1:2), Volatilization of supernatant) was “amorphous (Volatilization)” and the Crystal form ([1]; ethanol, 40° C. in the dark for 2 days) was “A crystal form”. The Crystal form ([1]; ethanol-water (3:1), Volatilization of supernatant) was “amorphous (Volatilization)”, the Crystal form ([1]; ethyl acetate, 40° C. in the dark for 2 days) was “A crystal form” and the Crystal form ([1]; isopropanol, 40° C. in the dark for 2 days) was “A crystal form”. For the same compound, the Crystal form ([1]; isopropanol-water (1:1), Volatilization of supernatant) was “A crystal form”, the Crystal form ([1]; methanol, 40° C. in the dark for 2 days) was “A crystal form” and the Crystal form ([1]; methanol-water (3:1), 40° C. in the dark for 2 days) was “A crystal form”. The “Tumor volume Day 0” value ([2]; Day 0) was 171 ± 26 mm^3, the “Tumor volume Day 7” value ([2]; Day 7) was 172 ± 33 mm^3 and the “Tumor volume Day 14” value ([2]; Day 14) was 150 ± 29 mm^3. For the same compound, the “Tumor volume Day 21” value ([2]; Day 21) was 175 ± 42 mm^3, the IC50 [3] was 70 nM and the “Description of Solubility” value ([4]; 0.01N HCl (pH 1.99)) was “slightly soluble”. The “Description of Solubility” value ([4]; 0.1N HCl (pH 1.00)) was “slightly soluble”, the solubility at 4 h [4, 6] was > 2500 µg/mL and the solubility at 24 h [4, 6] was > 2500 µg/mL. For the same compound, the solubility at 4 h [4, 7] was > 2500 µg/mL, the solubility at 24 h [4, 7] was > 2500 µg/mL and the solubility at 4 h [4, 8] was 110 µg/mL. For the same compound, the solubility at 24 h [4, 8] was 138 µg/mL, the solubility at 4 h [4, 9] was 2 µg/mL and the solubility at 24 h [4, 9] was 2 µg/mL. The “Description of Solubility” value ([4]; pH 3.8 buffer (pH 3.80)) was “slightly soluble”, the “Description of Solubility” value ([4]; pH 4.5 buffer (pH 4.48)) was “slightly soluble” and the “Description of Solubility” value ([4]; pH 5.5 buffer (pH 5.52)) was “sparingly soluble”. For the same compound, the “Description of Solubility” value ([4]; pH 6.0 buffer (pH 6.04)) was “practically insoluble”, the “Description of Solubility” value ([4]; pH 6.8 buffer (pH 6.80)) was “practically insoluble” and the “Solubility 4 hrs” value ([4]; pH 6.8 buffer (pH 6.80)) was “<LOQ*”. For the same compound, the “Solubility (24 hrs)” value ([4]; pH 6.8 buffer (pH 6.80)) was “<LOQ”, the “Description of Solubility” value ([4]; pH 7.4 buffer (pH 7.39)) was “practically insoluble” and the “Solubility 4 hrs” value ([4]; pH 7.4 buffer (pH 7.39)) was “<LOQ”. For the same compound, the “Solubility (24 hrs)” value ([4]; pH 7.4 buffer (pH 7.39)) was “<LOQ”, the “Description of Solubility” value ([4]; purified water (pH 6.05)) was “slightly soluble” and the solubility at 4 h [4, 10] was > 2500 µg/mL. The solubility at 24 h [4, 10] was > 2500 µg/mL, the solubility at 4 h [4, 11] was > 2500 µg/mL and the solubility at 24 h [4, 11] was > 2500 µg/mL. For the same compound, the solubility at 4 h ([4]; purified water (pH 6.05)) was 1110 µg/mL, the solubility at 24 h ([4]; purified water (pH 6.05)) was 1220 µg/mL and the solubility at 24 h ([5]; simulated gastric fluid, SGF, read-out: Solubility SGF) was > 2000 µg/mL. It also gave a solubility at 24 h ([5]; FaSSIF, read-out: Solubility FaSSIF) of 23 µg/mL, a solubility at 24 h ([5]; FeSSIF, read-out: Solubility FeSSIF) of 1600 µg/mL and a solubility at 24 h ([5]; water, water, H2O, read-out: Solubility H2O) of 1140 µg/mL.
